From PMC2778857 (Biochemistry, 2009) come the findings set out here.

Positions count from the first letter of the chain named.

Experiment in all cases: titration with apoprotein, FMN absorbance or fluorescence
Assay [1] concerns the target T1, FMN-binding domain (FMN domain) of flavocytochrome P450BM-3 (BM3) (Priestia megaterium, UniProt P14779).
T1 sequence (P14779 472-650): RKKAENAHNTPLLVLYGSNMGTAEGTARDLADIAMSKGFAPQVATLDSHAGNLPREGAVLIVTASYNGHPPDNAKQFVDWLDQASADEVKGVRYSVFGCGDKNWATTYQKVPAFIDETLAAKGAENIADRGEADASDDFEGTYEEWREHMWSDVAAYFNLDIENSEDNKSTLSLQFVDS

The target of assay [2] is T2, FMN-binding domain (FMN domain) of flavocytochrome P450BM-3 (BM3) (Priestia megaterium, UniProt P14779, Y537H).
T2 sequence (P14779 472-650 Y537H): T1 sequence (P14779 472-650) with Y66H

Assay [3] deals with T3, FMN-binding domain (FMN domain) of flavocytochrome P450BM-3 (BM3) (Priestia megaterium, UniProt P14779, N538G).
T3 sequence (P14779 472-650 N538G): T1 sequence (P14779 472-650) with N67G

Assay [4] has as its target T4, FMN-binding domain (FMN domain) of flavocytochrome P450BM-3 (BM3) (Priestia megaterium, UniProt P14779, G539A/N538G).
T4 sequence (P14779 472-650 N538G/G539A): T1 sequence (P14779 472-650) with N67G, G68A

Assay [5] concerns the target T5, FMN-binding domain (FMN domain) of flavocytochrome P450BM-3 (BM3) (Priestia megaterium, UniProt P14779, N538A).
T5 sequence (P14779 472-650 N538A): T1 sequence (P14779 472-650) with N67A

Assay [6] addresses T6, FMN-binding domain (FMN domain) of flavocytochrome P450BM-3 (BM3) (Priestia megaterium, UniProt P14779, G539A/N538A).
T6 sequence (P14779 472-650 N538A/G539A): T1 sequence (P14779 472-650) with N67A, G68A

Assay [7] deals with T7, FMN-binding domain (FMN domain) of flavocytochrome P450BM-3 (BM3) (Priestia megaterium, UniProt P14779, Y537R).
T7 sequence (P14779 472-650 Y537R): T1 sequence (P14779 472-650) with Y66R

In assay [8] the target is T8, FMN-binding domain (FMN domain) of flavocytochrome P450BM-3 (BM3) (Priestia megaterium, UniProt P14779, P541A).
T8 sequence (P14779 472-650 P541A): T1 sequence (P14779 472-650) with P70A

Assay [9] concerns the target T9, FMN-binding domain (FMN domain) of flavocytochrome P450BM-3 (BM3) (Priestia megaterium, UniProt P14779, P542A).
T9 sequence (P14779 472-650 P542A): T1 sequence (P14779 472-650) with P71A

For `Cc1cc2nc3c(=O)[nH]c(=O)nc-3n(C[C@H](O)[C@H](O)[C@H](O)COP(=O)(O)O)c2cc1C` [FMN], the dissociation constant Kd in assay [1] came out at 41 ± 18 nM; in assay [2] it was 350 ± 72 nM; in [3], 30 ± 5 nM; in assay [4] it was 400 ± 100 nM; in [5] it was 30 ± 5 nM; in assay [6], 1000 ± 200 nM. The Kd amounted to 2100 ± 600 nM in assay [7], 43 ± 7 nM in assay [8] and 140 ± 33 nM in assay [9].
